Data published in patent US5585380A, “Modulation of cellular response to external stimuli” (priority 1995, dated 1996).

How the values were obtained:
[1] = tested on: NIH3T3 murine fibroblast cells transformed with a mutated K-ras; assay: Growth and soft agar colonies of K-ras transformed NIH3T3 cells in vitro; type: cell-based; conditions: concentrations at or greater than 0.5 mM
Method: Additionally, NIH3T3 murine fibroblast cells transformed with a mutated K-ras (codon 12 Gly-Val) were tested in vitro and in nude mice.

[2] = tested on: phosphatidic acid phosphohydrolase (PAPH); assay: Invention assay: HPLC of lipids from IL-1-stimulated mesangial cells, PAPH; type: cell-based, human; conditions: 0.5 mM; subsequent determinations
Method: (§1) This example also illustrates the method of the invention.
(§2) Human glomerular mesangial cells were incubated with IL-1 for various time periods of 5-60 seconds and the cells were fixed in ice-cold methanol, and the lipids extracted using chloroform:methanol 2:1 (v/v). It is very important that the fixing/extraction process be conducted quickly so that the decomposition of unstable intermediates is halted.
(§3) The extracts were subjected to HPLC on a Rainin mu-Porasil column with a 3:4 hexane:propanol organic carrier and a 1-10% water gradient during the first 10 minutes of separation. The relative concentration of each lipid species is determined using absorption at 206 nm (A206), which follows unsaturated acyl content of lipid species. […] The absolute mass of each lipid species is determined by lisolation of the lipid using a fraction collector, repurification on the HPLC column. Determination of phospholipid phosphorus is as nmoles/mg cellular protein. Protein concentration is determined using the Bradford technique.

[3] = tested on: PA and DAG levels in human glomerular mesangial cells; assay: Invention assay: HPLC of lipids from IL-1-stimulated mesangial cells; type: cell-based
Method: The compounds of Formula I are shown to modulate the effects of primary stimuli which elevate levels of the relevant subspecies of PA and DAG using the assay system of the invention. In general for the assay, the cells to be tested are first incubated with the primary stimulating agent for various time periods and fixed in ice-cold methanol. The lipids are extracted using, for example, chloroform:methanol 2:1 (v/v), and the extracts are then subjected to HPLC as described by Bursten and Harris, Biochemistry (1991)------. In this method, a Rainin mu-Porasil column is used with a 3:4 hexane:propanol organic carrier and a 1-10% water gradient during the first 10 minutes of separation. Detection of the peaks in the elution pattern is by absorption in the range of ultraviolet which detects isolated double bonds. Thus, the relevant peaks of unsaturated PA and DAG are shown in the elution pattern. It is important to note that the assay method permits discrimination between various forms of PA and DAG so that those relevant to the pathway affected by the compounds of Formula I can be measured directly. Confirmation of the nature of the acyl substituents of these components is accomplished using fast-atom bombardment mass spectroscopy. Thus, the relevant unsaturated (non-arachidonic) PA and DAG subspecies may be detected. The time periods employed are 5-60 seconds after stimulation with the primary stimulus, such as a cytokine. This technique permits assessment of the levels of various lipid components as a function of time.
To test the effect of the compounds of the invention, the candidate compound is included in the initial incubation at various concentrations. Fixing, extraction and HPLC are conducted as above. The effect of the candidate compound is then reflected in a lowering of the relevant PA and DAG levels as compared to the cells without candidate in the control as illustrated hereinbelow.
as §2
as §3, with “Determination of phospholipid phosphorus is as nmoles/mg cellular protein.” left out, “technique. […]” for “technique.”

[4] = tested on: human leukemic cell line (Mo7e); assay: GM-CSF-stimulated colony formation in semisolid medium; type: cell-based; conditions: rhGM-CSF; colonies counted after 10 days; FIG. 14
Method: The human leukemic cell line (Mo7e) is dependent on added granulocyte-macrophage colony-stimulating factor (GM-CSF) for growth. Mo7e cells were cultured in semisolid medium with and without pentoxifylline (PTX) and rhGM-CSF. Colonies were counted 10 days after culture initiation under an inverted microscope. […] PTX thus prevents the up-regulation of activation-associated genes which inhibit proliferation.

[5] = tested on: TNF, IL-2 and IL-2 receptor transcripts in CD3 positive lymphocytes; assay: Northern blots of CD3 positive lymphocytes in a mixed lymphocyte reaction; type: cell-based
[6] = tested on: lyso-PA acyl transferase (LPAAT); assay: Invention assay: HPLC of lipids from IL-1-stimulated mesangial cells, LPAAT; type: cell-based, human; conditions: compared with 0.5 mM; subsequent determinations
Method: as §1, §2, §3

[7] = tested on: IL-6 transcripts in bone marrow stromal cells; assay: Northern blot of IL-6 transcripts; type: cell-based; conditions: three-hour exposure, increasing concentrations; FIG. 16
TNFα = conditions: Singer et al.; cited from earlier work
[8] = tested on: NIH3T3 cell line (D5C3) transformed with temperature-sensitive v-abl mutant gene; assay: Blocking transformed phenotype of D5C3 cells; type: cell-based, murine; conditions: 1 mM pentoxifylline; 33° C., 5 days
Method: An NIH3T3 cell line ([MUT]) provides target cells which were transformed by an activated oncogene. The cells were transformed with a temperature-sensitive v-abl mutant gene. This mutant gene encodes a temperature-sensitive v-abl protein that produces a non-oncogenic product at a non-permissive temperature due to a lack of tyrosine phosphorylation. The cells were incubated at the permissive temperature (33° C.) for 5 days after passage with and without pentoxifylline (1 mM).

[9] = tested on: IL-8 encoding mRNA in U937 and THP1 monocytic cell lines; assay: Northern blot of IL-8 mRNA after lipopolysaccharide or GM-CSF; type: cell-based; conditions: induced by lipopolysaccharide or GM-CSF
Method: The murine fibrosarcoma cell line, L929, was also tested as an indicator for assays of TNF cytotoxicity. Cell growth was assayed by crystal violet staining using optical density as a measure of growth. […] Finally, two monocytic cell lines, U937 and THP1, were used to test the effect of pentoxifylline on the […] of the cytokine IL-8. The cell lines in culture were induced to upregulate IL-8 production by lipopolysaccharide or GM-CSF.

[10] = tested on: Steel factor transcripts in marrow stromal cell lines; assay: Northern blot of Steel factor transcripts; type: cell-based; conditions: three-hour incubation; passaged or cloned (CDCL) marrow stromal cell lines; FIGS. 17 and 18
[11] = tested on: HLA-DR, CD71, CD25 and CD69 on MLR-stimulated lymphocytes; conditions: Singer et al.; cited from earlier work
T cell proliferation = conditions: Singer et al., cited from earlier work
[12] = tested on: TNFα transcripts in U937 cells; assay: Northern blot of TNFα transcripts after LPS induction; type: cell-based; conditions: 1 mM PTX; LPS three hours; FIG. 15
[13] = tested on: SV40 T-antigen-transformed human kidney mesangial cells; assay: Tritiated thymidine uptake of transformed mesangial cells with rhIL-1 or TNFα; type: cell-based
Method: SV40 T-antigen-transformed human kidney mesangial cells were cultured under standard conditions with rhIL-1 or with TNFα with and without pentoxifylline (PTX). Transformed mesangial cells grow independently of added growth factors, but IL-1 and TNFα are the normal proliferative signals for mesangial cells. As was shown in Example 1, when IL-1 is added to kidney mesangial cells, within 30 seconds LPAAT and PAPH are activated; the effect of both of these enzymes is inhibited by pentoxifylline at 1 mM. In this experiment, the growth of the treated cells was measured using tritiated thymidine uptake.

CD3-positive lymphocytes = assay: Proliferation of anti-CD3-stimulated CD2-positive cells (thymidine uptake); type: cell-based; conditions: CD2-positive T-cells, adsorbed monoclonal antibody 64.1, harvested after 5 days; IL-1 or TNF failed to reverse; FIG. 21
Method: In these experiments, freshly isolated, CD2-positive cells were stimulated by a solid-phase monoclonal antibody to acquire a CD3 phenotype, and then PTX was added. […] The block in proliferation could not be overcome by addition of either tumor necrosis factor (FIGS. 20 and 21) or IL-1 (FIG. 21). […] The cytokines and PTX were added at culture inception and the cells were harvested after 5 days.

## CC(=O)CCCCn1c(=O)c2c(ncn2C)n(C)c1=O [Pentoxifylline]
[1]
  anchorage-independent growth in soft agar: suppression of anchorage-independent growth
  growth in vitro: inhibition of growth
[2]
  inhibition of PAPH: inhibits PAPH
[3]; 100 μM pentoxifylline, 10^-11 M IL-1, 15- and 60-second points
  cyclical formation of PA and conversion of PA to DAG (HPLC): no change
[3]; 500 μM pentoxifylline, IL-1, 15 second time point
  conversion of PA to DAG (HPLC): slight attenuation
[3]; 1 mM PTX, all time points (15-60 seconds)
  elevation of PA and DAG by IL-1 (HPLC): abolishes the elevation of PA and DAG
[4]
  GM-CSF-stimulated growth of colonies: enhanced GM-CSF-stimulated growth of colonies
[5]; FIG. 19A
  TNF transcripts: suppression
[5]; FIG. 19C
  IL-2 receptor transcripts: suppression
[6]
  inhibitory effect on LPAAT: evident only at higher concentrations
[7]
  production of IL-6 transcripts: increased production of IL-6 transcripts
TNFα
  effect on secretion of TNFα versus TNF transcription: greater effect on secretion of TNFα
[8]
  appearance of cells: predominantly non-transformed, fibroblastic appearance
[9]
  synthesis of IL-8 (mRNA): did not inhibit, and indeed may upregulate
[10]
  levels of Steel factor transcripts: increases
[11]
  expression of cell surface antigens HLA-DR, CD71, CD25, CD69: decreased expression
T cell proliferation; PTX added after triggering lymphocytes
  proliferative response in a mixed lymphocyte culture: still effective in blocking a proliferative response
T cell proliferation; exogenous recombinant TNF or IL-1 did not reverse
  proliferation of lymphocytes induced by anti-CD3: suppressed proliferation
[12]
  TNF RNA in response to LPS stimulation: undetectable level
[13]; TNFα, FIG. 13B
  proliferative effect of TNF (thymidine uptake): enhances the proliferative effect of TNF
[13]; rhIL-1, FIG. 13A
  growth stimulated by IL-1 (thymidine uptake): arrested growth
CD3-positive lymphocytes
  thymidine uptake: diminished by PTX in an concentration-dependent manner
